Data from patent US9493528B2, “Microphthalmia-associated transcription factor-derived peptide and composition containing same” (KNU-INDUSTRY COOPERATION FOUNDATION, priority 2013, dated 2016).
No end group written: not given here.

Key:
tyrosinase = experiment: Inhibitory activity against tyrosinase activity in mouse melanoma cell line B16F1 (L-DOPA); type: cell-based; settings: B16F1 cells, α-MSH, 72 hours, extracts with L-DOPA 2 hours, absorbance at 490, FIG. 6
Experimental: B16F1 cells (Korean Cell Line Bank, Seoul) were added to each well of a 24-well plate (5×10^4 cells per well), along with 1 ml of DMEM, and then stabilized through incubating in a 5% CO2 incubator at 37° C. for 24 hours. α-MSH (Sigma Co, MO, USA), a melanocyte-stimulating hormone, was treated to each well, along with the peptide of SEQ ID NO: 3 in predetermined concentrations. After incubating the plate for 72 hours, the proteins were extracted therefrom. The obtained extracts were added to each well of a 96-well plate and then treated with a L-dihydroxyphenylalanine (L-DOPA) solution (100 μL) at 37° C. for 2 hours. After 2 hours, the pictures thereof were taken and the tyrosinase activities thereof were measured at […] with a microreader.

tyrosinase (TYR) = experiment: Gene expression of tyrosinase in B16F1 cells (RT-PCR); type: cell-based, mouse; settings: α-MSH, 72 hours, FIG. 7
Experimental: (§1) B16F1 cells (Korean Cell Line Bank, Seoul) were added to each well of a 6-well plate (1.5×10^5 cells per well), along with 2 ml of DMEM, and then stabilized through incubating in a 5% CO2 incubator at 37° C. for 24 hours. α-MSH (Sigma Co, MO, USA), a melanocyte-stimulating hormone, was treated to each well, along with the peptide of SEQ ID NO: 3 in predetermined concentrations. After incubating the plate for 72 hours, the total RNAs were extracted therefrom and then cDNAs were synthesized. The cDNA syntheses were carried out with a Reverse Transcription Master premix (Elpisbiotech, Daejeon, Korea). Using each synthesized cDNA as a template, reverse transcription polymerase chain reaction (RT-PCR) was carried out with a ROTOR Q GENE apparatus. Each RT-PCR solution was prepared by mixing 1 μl of cDNA, 10 μl of TOPreal qRT-PCR2X premix (Enzynomics, Daejeon, Korea), 2 μl of primer set (10 pmol) and 7 μl of D. W. The RT-PCR was carried out as follows: initially at 94° C. for 10 minutes; and then at 94° C. for 10 seconds, at 58° C. for 30 seconds, and at 72° C. for 1 minute; 40 cycles.
(§2) The results obtained by measuring the gene expressions of tyrosinase, TRP-1 and TRP-2 through the above RT-PCR are shown in FIG. 7.

TRP-1 = experiment: Gene expression of TRP-1 in B16F1 cells (RT-PCR); type: cell-based, mouse; settings: α-MSH, 72 hours, FIG. 7
Experimental: as §1, §2

TRP-2 = experiment: Gene expression of TRP-2 in B16F1 cells (RT-PCR); type: cell-based, mouse; settings: α-MSH, 72 hours, FIG. 7
Experimental: as §1, §2

[1] = system: mouse melanoma cell line B16F1; experiment: Inhibitory activity against melanin formation in mouse melanoma cell line B16F1; type: cell-based; settings: B16F1 cells, α-MSH 100 nM, peptide 0.1, 1 and 10 μM, 24 hours, FIG. 5
Experimental: B16F1 cells (Korean Cell Line Bank, Seoul) were added to each well of a 6-well plate (1.5×10^5 cells per well), along with 2 ml of DMEM, and then incubated in a 5% CO2 incubator at 37° C. for 24 hours. α-MSH (Sigma Co, MO, USA) (100 nM) was treated to each well, along with the peptide of SEQ ID NO: 3 in the final concentrations of 0.1, 1, and 10 μM. The groups in which α-MSH (100 nM) and foskolin (Sigma Co, MO, USA) (10 μM) were respectively treated were used as positive controls. And also, the group having no treatment (i.e., no α-MSH (100 nM) treatment) and the group in which α-MSH (100 nM) and Kojic acid (Sigma Co, MO, USA) (800 μM) were treated were used as negative controls. After additionally incubating the plate for 24 hours, the pictures of each culture ware taken so as to compare the respective levels of melanin formation.

B16F1 cells = experiment: Inhibitory activity against proliferation of mouse melanoma cell line B16F1 (CCK-8); type: cell-based; settings: peptide 0.01, 0.1, 1 or 10 μM, 24, 48 and 72 hours, CCK-8, FIG. 8
Experimental: B16F1 cells (Korean Cell Line Bank, Seoul) were added to each well of a 96-well plate (5×10^3 cells per well), along with 100 μL of DMEM, and then incubated in a 5% CO2 incubator at 37° C. for 24 hours. The respective wells were treated with 10 μL of each peptide solution of SEQ ID NO: 3 having a concentration of 0.01, 0.1, 1, or 10 μM. After incubating the plate for 24, 48, and 72 hours, each well was treated with CCK-8 (Dojindo Laboratories, Japan) for 1 hour and then the absorbance thereof was measured at 450 nm, using a Spectramax plus 190 plate reader (Molecular Devices, USA).

BCL-2 = experiment: Inhibitory activity against BCL-2 expression in mouse melanoma cell line B16F1 (Western blotting); type: cell-based; settings: B16F1 cells, UV-B 50 mJ/cm^2 plus peptide in predetermined concentrations, 24 hours, Western blot, FIG. 9
Experimental: The expression of BCL-2, playing a critical role in proliferation of melanocytes, is controlled by MITF. Whether the BCL-2 expression in melanocytes is inhibited by the treatment of the peptide of the present invention was evaluated, using a Western blotting assay. B16F1 cells (Korean Cell Line Bank, Seoul) were added to each well of a 6-well plate (1.5×10^5 cells per well), along with 2 ml of DMEM, and then incubated in a 5% CO2 incubator at 37° C. for 24 hours. Each well was treated with UV-B irradiation (50 mJ/cm^2) and the peptide of SEQ ID NO: 3 in predetermined concentrations. After incubating the plate for 24 hours, the proteins were extracted therefrom. The extracts were subject to the Western blotting assay using an anti-BCL-2 antibody (Santa Cruz Co., CA, USA).

Row | Substance | tyrosinase activity (tyrosinase) | expression of tyrosinase (TYR) (tyrosinase (TYR)) | expression of TRP-1 (TRP-1) | expression of TRP-2 (TRP-2) | melanin formation (colour of cell culture) [1] | proliferation of B16F1 cells (B16F1 cells) | expression levels of BCL-2 (BCL-2)
1 | α-melanocyte stimulating hormone (SYSMEHFRWGKPV; ends and bridges not checked; UniProt P01189 138-150, looked up) [α-MSH, melanocyte-stimulating hormone (Sigma), used as stimulus / positive control, reference compound] | increased | increased | increased | increased | – | – | –
2 | Lys-Gly-Arg (KGR; Peptide fragment) [SEQ ID NO: 3, MITF-derived peptide fragment] | decreased in concentration-dependent manner | decreased in concentration-dependent manner | decreased in concentration-dependent manner | decreased in concentration-dependent manner | decreased according to the concentrations of the peptide | decreased in concentration-dependent manner | reduced
